According to ChEMBL document CHEMBL1201862, “PubChem BioAssay data set” (2004):
Calls of active or inactive are those of the source.

What was measured:
Format in all cases: functional
[1] = target: ALK tyrosine kinase receptor (Homo sapiens, UniProt Q9UM73);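 also: ALK tested as one member of a kinase panel screen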
[2] = target: Cyclin-dependent kinase 19 (Homo sapiens, UniProt Q9BWU1); experiment: Navigating the Kinome. Panel member name: CDC2L6
[3] = target: Sphingosine 1-phosphate receptor 2 (Homo sapiens, UniProt O95136); experiment: Late-stage fluorescence-based dose-response cell-based counterscreen assay to identify agonists of the Sphingosine 1-Phosphate Receptor 3 (S1P3): Sphingosine 1-Phosphate Receptor 2 (S1P2) agonist assay.
[4] = target: T1, Sphingosine 1-phosphate receptor 4 (Homo sapiens, UniProt O95977); experiment: Late-stage fluorescence-based dose-response cell-based counterscreen assay to identify agonists of the Sphingosine 1-Phosphate Receptor 3 (S1P3): Sphingosine 1-Phosphate Receptor 4 (S1P4) agonist assay.
T1 sequence (O95977 whole entry): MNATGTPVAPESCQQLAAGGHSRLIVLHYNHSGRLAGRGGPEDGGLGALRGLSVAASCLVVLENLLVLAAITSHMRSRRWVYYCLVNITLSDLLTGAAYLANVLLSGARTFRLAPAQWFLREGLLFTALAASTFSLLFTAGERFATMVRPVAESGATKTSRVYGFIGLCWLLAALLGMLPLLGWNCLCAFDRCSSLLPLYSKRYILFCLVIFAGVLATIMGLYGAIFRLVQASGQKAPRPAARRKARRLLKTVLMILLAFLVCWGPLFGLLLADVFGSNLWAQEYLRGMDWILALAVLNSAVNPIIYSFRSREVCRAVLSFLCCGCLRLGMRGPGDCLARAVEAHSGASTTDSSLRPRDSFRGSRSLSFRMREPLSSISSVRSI

[5] = target: T2, V-type proton ATPase subunit c' (Saccharomyces cerevisiae S288c, UniProt P32842); experiment: Dose Response with BCECF Assay for V-ATPase inhibitors that increase vacuolar pH, Powder Set 1.; conditions: read-out: EC50_MICROM
[6] = target: T2, V-type proton ATPase subunit c'; experiment: Dose Response of Small Molecules that Regulate V-ATPase Proton Transport in Yeast using pHLuorin, Powder Set1.; conditions: read-out: EC50_MICROM
[7] = target: Serine/threonine-protein kinase pim-1 (Homo sapiens, UniProt P11309)
[8] = target: Cell division cycle 7-related protein kinase (Homo sapiens, UniProt O00311);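 also: value obtained from a kinome-wide kinase panel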
[9] = target: Homeodomain-interacting protein kinase 2 (Homo sapiens, UniProt Q9H2X6);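 also: measured within a kinome-wide kinase profiling panel, HIPK2 being one panel member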
[10] = target: Interleukin-1 receptor-associated kinase 4 (Homo sapiens, UniProt Q9NWZ3)
[11] = target: Glycogen synthase kinase-3 beta (Homo sapiens, UniProt P49841);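 also: value comes from a broad kinome profiling panel, with GSK3B as the panel member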
[12] = target: cAMP-dependent protein kinase catalytic subunit alpha (Homo sapiens, UniProt P17612)
[13] = target: Dual specificity protein kinase CLK4 (Homo sapiens, UniProt Q9HAZ1)
[14] = target: Mitogen-activated protein kinase kinase kinase kinase 4 (Homo sapiens, UniProt O95819)
Chain of Mitogen-activated protein kinase kinase kinase kinase 4 (O95819 whole entry): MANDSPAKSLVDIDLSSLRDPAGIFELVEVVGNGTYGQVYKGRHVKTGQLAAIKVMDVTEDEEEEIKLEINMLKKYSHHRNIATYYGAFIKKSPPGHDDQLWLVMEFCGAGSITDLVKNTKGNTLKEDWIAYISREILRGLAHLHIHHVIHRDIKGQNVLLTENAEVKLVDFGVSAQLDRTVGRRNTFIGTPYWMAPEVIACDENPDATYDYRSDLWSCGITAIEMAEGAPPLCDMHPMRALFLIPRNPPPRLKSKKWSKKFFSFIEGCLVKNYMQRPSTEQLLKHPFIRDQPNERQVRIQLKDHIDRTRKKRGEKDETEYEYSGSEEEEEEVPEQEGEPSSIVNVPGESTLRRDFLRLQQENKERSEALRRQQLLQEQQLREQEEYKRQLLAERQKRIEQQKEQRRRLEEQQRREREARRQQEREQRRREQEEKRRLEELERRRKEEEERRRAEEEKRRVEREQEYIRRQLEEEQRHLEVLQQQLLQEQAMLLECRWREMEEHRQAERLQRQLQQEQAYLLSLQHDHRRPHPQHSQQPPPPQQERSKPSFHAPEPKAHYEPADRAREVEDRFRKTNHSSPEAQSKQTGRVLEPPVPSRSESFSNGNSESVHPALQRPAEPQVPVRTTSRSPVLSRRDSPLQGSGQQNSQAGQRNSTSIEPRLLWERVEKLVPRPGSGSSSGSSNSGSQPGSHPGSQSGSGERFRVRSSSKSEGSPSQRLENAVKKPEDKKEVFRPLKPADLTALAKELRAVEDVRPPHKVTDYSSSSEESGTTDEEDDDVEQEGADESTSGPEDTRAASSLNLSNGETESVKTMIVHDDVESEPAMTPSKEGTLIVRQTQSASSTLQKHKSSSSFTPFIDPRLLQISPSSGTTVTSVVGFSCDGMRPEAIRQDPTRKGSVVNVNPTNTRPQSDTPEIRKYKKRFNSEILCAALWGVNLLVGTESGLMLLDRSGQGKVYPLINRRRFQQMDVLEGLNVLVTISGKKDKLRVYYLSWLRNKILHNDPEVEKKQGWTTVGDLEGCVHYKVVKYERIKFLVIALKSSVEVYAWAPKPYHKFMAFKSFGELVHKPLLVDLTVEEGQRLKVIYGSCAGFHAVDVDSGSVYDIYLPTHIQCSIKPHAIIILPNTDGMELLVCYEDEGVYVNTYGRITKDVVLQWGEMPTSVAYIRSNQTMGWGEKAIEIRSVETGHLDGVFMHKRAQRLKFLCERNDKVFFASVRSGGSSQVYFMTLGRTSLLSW

T2 sequence (P32842 whole entry): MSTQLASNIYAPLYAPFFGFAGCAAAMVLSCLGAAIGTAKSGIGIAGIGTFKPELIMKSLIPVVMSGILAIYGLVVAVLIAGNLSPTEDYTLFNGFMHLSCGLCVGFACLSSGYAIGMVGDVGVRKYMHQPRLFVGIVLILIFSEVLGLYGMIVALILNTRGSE
Chain of Dual specificity protein kinase CLK4 (Q9HAZ1 whole entry): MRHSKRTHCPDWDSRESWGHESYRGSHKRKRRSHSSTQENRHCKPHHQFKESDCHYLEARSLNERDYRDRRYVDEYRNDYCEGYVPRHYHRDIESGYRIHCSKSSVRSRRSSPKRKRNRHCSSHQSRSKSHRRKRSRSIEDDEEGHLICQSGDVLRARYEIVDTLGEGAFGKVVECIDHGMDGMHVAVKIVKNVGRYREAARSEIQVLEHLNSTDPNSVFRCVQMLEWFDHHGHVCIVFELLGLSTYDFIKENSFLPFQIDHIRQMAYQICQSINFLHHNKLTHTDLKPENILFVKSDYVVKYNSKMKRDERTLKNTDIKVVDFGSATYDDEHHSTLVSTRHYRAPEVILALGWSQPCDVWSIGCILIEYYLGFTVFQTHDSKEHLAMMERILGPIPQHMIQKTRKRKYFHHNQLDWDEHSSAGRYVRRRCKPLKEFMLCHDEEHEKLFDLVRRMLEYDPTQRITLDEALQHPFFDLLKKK
Chain of Interleukin-1 receptor-associated kinase 4 (Q9NWZ3 whole entry): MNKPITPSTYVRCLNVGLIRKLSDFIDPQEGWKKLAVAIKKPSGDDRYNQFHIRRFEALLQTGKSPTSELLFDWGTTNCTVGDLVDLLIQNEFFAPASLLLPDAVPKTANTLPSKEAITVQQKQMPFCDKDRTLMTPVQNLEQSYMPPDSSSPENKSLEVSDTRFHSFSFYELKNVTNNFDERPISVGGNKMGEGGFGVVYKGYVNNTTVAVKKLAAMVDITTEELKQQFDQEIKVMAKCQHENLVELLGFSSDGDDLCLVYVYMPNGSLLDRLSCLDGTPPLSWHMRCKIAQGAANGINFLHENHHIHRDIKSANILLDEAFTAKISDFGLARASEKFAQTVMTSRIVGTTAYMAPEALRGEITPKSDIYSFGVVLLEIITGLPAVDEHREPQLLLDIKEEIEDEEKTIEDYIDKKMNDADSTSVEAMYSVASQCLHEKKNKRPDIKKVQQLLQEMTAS
Chain of Cyclin-dependent kinase 19 (Q9BWU1 whole entry): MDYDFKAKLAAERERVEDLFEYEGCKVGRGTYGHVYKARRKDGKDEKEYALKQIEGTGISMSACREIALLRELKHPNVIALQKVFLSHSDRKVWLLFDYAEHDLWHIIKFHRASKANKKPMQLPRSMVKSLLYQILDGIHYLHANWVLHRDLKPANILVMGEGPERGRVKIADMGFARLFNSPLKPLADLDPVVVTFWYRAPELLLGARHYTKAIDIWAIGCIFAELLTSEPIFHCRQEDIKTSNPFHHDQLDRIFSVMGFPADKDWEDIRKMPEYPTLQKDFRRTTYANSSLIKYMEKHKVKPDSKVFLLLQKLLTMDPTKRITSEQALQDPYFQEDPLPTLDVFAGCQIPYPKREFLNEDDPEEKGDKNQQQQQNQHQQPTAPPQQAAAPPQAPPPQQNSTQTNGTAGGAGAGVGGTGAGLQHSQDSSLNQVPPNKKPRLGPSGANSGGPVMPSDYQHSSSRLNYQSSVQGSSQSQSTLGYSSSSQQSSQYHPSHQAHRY
Chain of Glycogen synthase kinase-3 beta (P49841 whole entry): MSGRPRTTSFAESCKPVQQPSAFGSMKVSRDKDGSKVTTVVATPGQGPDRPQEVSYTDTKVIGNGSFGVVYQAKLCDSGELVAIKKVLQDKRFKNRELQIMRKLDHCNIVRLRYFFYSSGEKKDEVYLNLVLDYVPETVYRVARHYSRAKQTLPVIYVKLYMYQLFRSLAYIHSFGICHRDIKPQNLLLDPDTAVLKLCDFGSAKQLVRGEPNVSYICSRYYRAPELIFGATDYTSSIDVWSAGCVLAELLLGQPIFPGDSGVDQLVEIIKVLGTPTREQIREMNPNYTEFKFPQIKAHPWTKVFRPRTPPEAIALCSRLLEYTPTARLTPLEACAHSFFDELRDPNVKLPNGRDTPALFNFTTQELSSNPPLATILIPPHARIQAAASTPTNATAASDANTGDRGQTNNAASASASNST
Chain of Cell division cycle 7-related protein kinase (O00311 whole entry): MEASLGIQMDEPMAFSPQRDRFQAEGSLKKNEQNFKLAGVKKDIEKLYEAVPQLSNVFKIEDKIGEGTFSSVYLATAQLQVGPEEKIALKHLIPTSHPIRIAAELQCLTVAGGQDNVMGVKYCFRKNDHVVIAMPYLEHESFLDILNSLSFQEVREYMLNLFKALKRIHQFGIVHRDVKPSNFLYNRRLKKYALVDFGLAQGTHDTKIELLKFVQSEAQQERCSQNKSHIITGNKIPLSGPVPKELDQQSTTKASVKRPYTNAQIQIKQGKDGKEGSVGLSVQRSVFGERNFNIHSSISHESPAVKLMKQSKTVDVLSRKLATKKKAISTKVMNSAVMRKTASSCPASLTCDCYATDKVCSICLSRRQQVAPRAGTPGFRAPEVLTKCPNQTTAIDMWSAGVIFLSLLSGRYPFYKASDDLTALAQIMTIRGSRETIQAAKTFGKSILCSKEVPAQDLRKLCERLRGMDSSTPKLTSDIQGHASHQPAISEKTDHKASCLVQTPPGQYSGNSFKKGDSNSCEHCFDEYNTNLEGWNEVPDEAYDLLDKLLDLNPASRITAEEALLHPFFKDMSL
Chain of Sphingosine 1-phosphate receptor 2 (O95136 whole entry): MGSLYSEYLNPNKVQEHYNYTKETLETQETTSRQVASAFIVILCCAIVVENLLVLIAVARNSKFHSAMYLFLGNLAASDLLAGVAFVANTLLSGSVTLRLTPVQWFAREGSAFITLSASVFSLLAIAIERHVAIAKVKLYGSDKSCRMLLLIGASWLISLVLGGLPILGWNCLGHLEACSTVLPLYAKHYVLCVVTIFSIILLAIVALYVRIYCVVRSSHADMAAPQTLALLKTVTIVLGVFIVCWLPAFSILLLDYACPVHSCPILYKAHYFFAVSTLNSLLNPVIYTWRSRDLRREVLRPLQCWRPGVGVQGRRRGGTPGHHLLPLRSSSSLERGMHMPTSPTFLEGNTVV
Chain of Serine/threonine-protein kinase pim-1 (P11309 whole entry): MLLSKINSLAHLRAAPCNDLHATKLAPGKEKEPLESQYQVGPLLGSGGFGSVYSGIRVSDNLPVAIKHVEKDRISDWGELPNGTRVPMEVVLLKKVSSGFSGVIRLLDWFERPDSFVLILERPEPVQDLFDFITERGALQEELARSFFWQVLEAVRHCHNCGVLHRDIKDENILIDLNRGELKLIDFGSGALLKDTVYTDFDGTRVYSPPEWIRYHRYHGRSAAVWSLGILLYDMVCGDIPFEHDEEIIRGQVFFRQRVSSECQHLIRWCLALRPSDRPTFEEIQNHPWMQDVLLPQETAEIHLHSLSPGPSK

## CCNC(=O)c1cnc(N)c2c(-c3ccc(NC(=O)Nc4cccc(Cl)c4)cc3)csc12
[1]
  Ki: 0.158 µM (active)
[2]
  Ki: > 100 µM (inactive)

## O=C(c1cc(C2CC2)on1)N(C1CCCCC1)C1CCCC1
[3]
  EC50: > 50 µM (inactive)
[4]
  EC50: > 50 µM (inactive)

## O=C(c1ccc([N+](=O)[O-])o1)N1CCN(c2ccc(C(F)(F)F)cn2)CC1
[5]
  EC50: 1.59 µM (active)
[6]
  EC50: 9.82 µM (active)

## COc1ccccc1C(=O)Nc1n[nH]c2ccc(-c3cn(Cc4ccccc4)nn3)cc12
[7]
  Ki: 0.501 µM (active)
[8]
  Ki: 0.00398 µM (active)
[9]
  Ki: 0.02 µM (active)
[10]
  Ki: > 10 µM (inactive)
[11]
  Ki: 0.00501 µM (active)
[12]
  Ki: > 7.94 µM (inactive)
[13]
  Ki: 0.00398 µM (active)
[14]
  Ki: 0.0794 µM (active)
